Assay: Cyclic voltammetry of Cu(II) bis(thiosemicarbazonato) complexes (half-wave potentials and peak separations)
Assay type: physicochemical
Conditions: DMF
Description: Voltametric experiments were performed with an Autolab (Eco Chemie, Utrecht, Netherlands) computer-controlled electrochemical workstation.
Recent studies have shown that in vivo stability of bifunctional chelators of copper is not only dependent on the thermodynamic stability and kinetic inertness of the complex but also the susceptibility to reduction of Cu(II) to Cu(I). Intracellular reductants with thiols, such as cysteine-rich metallothioneins, may act as effective reductants of Cu(II) and scavengers of the labile Cu(I) ions.

[1] = cyclic voltammogram, scan rate 0.1 V s^−1, glassy carbon electrode
[2] = cyclic voltammogram, scan rate 0.1 V s^−1, potentials relative to SCE, glassy carbon electrode

reversibility of the Cu(II)/Cu(I) reduction (cyclic voltammetry, glassy carbon electrode): quasi-reversible | Cu^II/Cu^I Epa − Epc (anodic to cathodic peak separation) [1]: 102 mV | Cu^III/Cu^II Epa − Epc (anodic to cathodic peak separation) [1]: 94 mV | Cu^II/Cu^I E1/2 [2]: -0.63 V | Cu^III/Cu^II E1/2 [2]: 0.75 V | E1/2 of Cu(II)/Cu(I) reduction (vs. SCE (Fc/Fc+ 0.54 V), glassy carbon working electrode): −0.63 V
Compound: CN=C([S-])N/N=C(C)/C(C)=N/NC([S-])=NC.[Cu+2] [Cu^II(atsm)]
